{
  "source": "patent US7531555B2",
  "about": "“Compositions and methods for selective inhibition of nicotine acetylcholine receptors” (University of Florida Research Foundation, Inc., priority 2003, dated 2009)",
  "tested_on": "mice",
  "experiment": "Tail-flick test, blockade of nicotine-induced antinociception",
  "format": "in vivo",
  "method": "Animals. Male ICR mice (20-25 g) obtained from Harlan Laboratories (Indianapolis, Ind.) were used throughout the study. Animals were housed in groups of six and had free access to food and water. Adult, male Long-Evans rats (350-460 g), obtained from Harlan (Dublin, Va.), were individually housed in a temperature-controlled (20-22° C.) environment with a 12-hour light-dark cycle (lights on at 7 a.m.). Rats were maintained within the indicated weight range by restricted post-session feeding and had ad libitum water in their home cages. Rats were drug-naive at the beginning of the study. Animals were housed in an AALAC approved facility and the study was approved by the Institutional Animal Care and Use Committee of Virginia Commonwealth University.\n1. Tail-flick test. Antinociception was assessed by the tail-flick method of D'Amour and Smith (D'Amour and Smith J. P. E. T., 1941, 72:74-79) as modified by Dewey et al. (Dewey et al. J Pharmacol Exp Ther, 1970, 175:435-442). Briefly, mice were lightly restrained while a radiant heat source was shone onto the upper portion of the tail. Latency to remove the tail from the heat source was recorded for each animal. A control response (2-4 seconds) was determined for each mouse before treatment, and a test latency was determined after drug administration. In order to minimize tissue damage, a maximum latency of 10 seconds was imposed. Antinociceptive response was calculated as percent maximum possible effect (% MPE), where % MPE=[(test-control)/(10-control)]×100.\n2. Hot-plate Test. […] Two control latencies at least 10 minutes apart were determined for each mouse. […] Antinociceptive response was calculated as percent maximum possible effect (% MPE), where % MPE=[(test-control)/(40-control)×100]. The reaction time was scored when the animal jumped or licked its paws. […]\nThe doses of nicotine used in the different tests represent approximately an ED84 (Effective dose 84%) which were determined from previous works (Damaj et al. Psychopharmacology (Berl), 1995, 117:67-73). […]",
  "data": [
    {"smiles": "CCCCCCC(=O)OC1CC(C)(C)NC(C)(C)C1", "note": "[TMPH, 2,2,6,6-tetramethylpiperidin-4-yl heptanoate]", "values": [
      {"measurement": "duration of TMPH effect, tail-flick", "setting": "TMPH 5 mg/kg s.c., still significantly different from control", "result": "at least 4 hours"},
      {"measurement": "time at which nicotine's effect started to recover, tail-flick", "setting": "pretreatment with TMPH 5 mg/kg", "result": "≤ 60", "unit": "min"},
      {"measurement": "antinociception by TMPH itself, tail-flick", "setting": "s.c. injection, at the indicated doses and times", "result": "did not cause antinociception"}
    ]}
  ]
}
